This is an account of results in US4427693A, “Antiinflammatory 4,5-diaryl-α,α-bis (polyhalomethyl)-2-thiophenemethanamines” (E. I. Du Pont de Nemours and Company, priority 1981, dated 1984).

The assay concerns Adjuvant-Induced Arthritis. Kind of assay: Established Adjuvant-Induced Arthritis in Rats. The format is in vivo, Charles River Lewis male rats. To be noted: for ED50: Rattus norvegicus, 168 h, read-out: ED50 = effective dose for 50% decrease from control paw volume. On the procedure: A procedure for detecting and comparing the antiinflammatory activity of compounds in this series and standard drugs for which there is a good correlation with human efficacy is the adjuvant-induced arthritis test in rats.
Established Adjuvant-Induced Arthritis in Rats
Charles River Lewis male rats (130-150 grams) are injected subcutaneously in plantar area of the right hind paw with 0.1 ml of adjuvant (Difco heatkilled, lyophilized Mycobacterium butyricum suspended in mineral oil 5 mg/ml). 20 Non-arthritic controls are injected with mineral oil. The animals are held for 2 weeks to allow development of arthritis. Paw volumes (uninjected, left hind paw) are measured and the adjuvant injected rats are culled and distributed to treatment groups of 10 of equal disease severity. Non-arthritic controls are distributed to 2 groups of 10. The rats are given oral doses of compound or PVA-Acacia (Polyvinyl Alcohol 1%, Gum Acacia, U.S.P. 5%, Methylparaben 0.5%) (10 ml/kg) by gavage on that day and on the 6 following days. One day after the last dose the paw volumes (uninjected, left hind paw) are measured using a Ugo Basile Volume Differential Meter Model 7101. [formula]
Dose-response regression lines of the % decrease are plotted on semi-log paper by visual fit and the ED50% decrease from control paw volume is determined by inspection.

[1] abbreviates: oral by gavage, daily, 7 days, dose-response regression lines, by visual fit.

Like-named read-outs stand apart in the source and are kept apart here.

One may read the ED50 as the dose that gives a 50% effect, or the effect in half of the subjects. On to `CC(=O)Oc1ccccc1C(=O)O` [Aspirin, reference compound], for which the ED50 (po) came out at 270 mg/kg.
As to `COc1ccc(-c2cc(C(N)(C(F)(F)F)C(F)(F)F)sc2-c2ccc(OC)cc2)cc1` [Example 1, 4,5-Bis(4-methoxyphenyl)-α,α-bis(trifluoromethyl)-2-thiophenemethanamine], where the note is “daily oral dose 27 mg/kg, 7 days, p < 0.001 compared to control by Students "t" test”, the “Percent Decrease From Control Paw Volume” value was 47%.
Regarding `NC(c1cc(-c2ccc(F)cc2)c(-c2ccc(F)cc2)s1)(C(F)(F)F)C(F)(F)F` [Example 2, 4,5-bis(4-fluorophenyl)-α,α-bis(trifluoromethyl)-2-thiophenemethanamine], under setting [1], the ED50 was 1.3 mg/kg.
The same measure, in the same setting: the same measure for `CSc1ccc(-c2sc(C(N)(C(F)(F)F)C(F)(F)F)cc2-c2ccc(F)cc2)cc1` [Example 3, 4-(4-fluorophenyl)-5-(4-methylthiophenyl)-α,α-bis(trifluoromethyl)-2-thiophenemethanamine]: 9 mg/kg.
Take `NC(c1cc(-c2ccc(F)cc2)c(-c2ccc(Cl)cc2)s1)(C(F)(F)F)C(F)(F)F` [Example 4]: the “Percent Decrease From Control Paw Volume” value (daily oral dose 9 mg/kg, 7 days, p < 0.1 compared to control by Students "t" test) worked out at 37%.
Consider `NC(c1cc(-c2ccccc2)c(-c2ccccc2)s1)(C(F)(F)F)C(F)(F)F` [Example 5], for which the ED50 under setting [1] stood at 17 mg/kg.
Take `NC(c1cc(-c2ccc(F)cc2)c(-c2ccc(F)cc2)s1)(C(F)(F)F)C(F)(F)Cl` (stereo not shown) [Example 6]: the ED50 under setting [1] was 3.8 mg/kg.
Still for that read-out and setting: the same measure for `NC(c1cc(-c2ccc(F)cc2)c(-c2ccc(F)cc2)s1)(C(F)F)C(F)(F)F` (stereo not shown) [Example 7]: 10.5 mg/kg.
Consider `Cc1ccc(-c2cc(C(N)(C(F)(F)F)C(F)(F)F)sc2-c2ccc(C)cc2)cc1` [Example 13], for which, where the note is “daily oral dose 24 mg/kg, 7 days, p < 0.05 compared to control by Students "t" test”, the “Percent Decrease From Control Paw Volume” value worked out at 27%.
In the case of `NC(c1cc(-c2ccccc2F)c(-c2ccccc2F)s1)(C(F)(F)F)C(F)(F)F` [Example 18], the “Percent Decrease From Control Paw Volume” value (daily oral dose 81 mg/kg, 7 days, p < 0.001 compared to control by Students "t" test) was determined as 41%.
For `CNC(c1cc(-c2ccc(F)cc2)c(-c2ccc(F)cc2)s1)(C(F)(F)F)C(F)(F)F` [Example 28, 1-[4,5-Bis(4-fluorophenyl)thiophen-2-yl]-2,2,2-trifluoro-1-trifluoromethyl-N-methylethanamine], the median effective dose (ED50) under setting [1] is 6.2 mg/kg.
As for `COc1ccc2c(c1)c(CC(=O)O)c(C)n2C(=O)c1ccc(Cl)cc1` [Indomethacin, reference compound], under “po”, the ED50 stood at 0.25 mg/kg.
On to `CCCCC1C(=O)N(c2ccccc2)N(c2ccccc2)C1=O` [Phenylbutazone, reference compound], for which the ED50 under setting [1] is 10 mg/kg.
